From the NIST ThermoML archive (doi:10.1021/je030147g)

Columns and labels:
[1] = xn = mol fraction of the nth substance listed; conditions: 101.33 kPa, Liquid
[2] = refractive index (Na D-line) (dimensionless); xn = mol fraction of the nth substance listed; conditions: 101.33 kPa, Liquid

CCCCN(CCCC)CCCC [tributylamine] + CCN(CC)CC
Conditions | mass density, 298.15 K [kg/m3] | mass density, 303.15 K [kg/m3] | mass density, 308.15 K [kg/m3] | refractive index, 298.15 K | refractive index, 303.15 K | refractive index, 308.15 K | speed of sound, 298.15 K [m/s] | viscosity, 298.15 K [mPa·s] | viscosity, 303.15 K [mPa·s] | viscosity, 308.15 K [mPa·s]
[1], x1 = 0.1072 | 732 | 727.3 | 722.8 | – | – | – | 1143 | 0.433 | 0.411 | 0.388
[1], x1 = 0.2039 | 739.2 | 734.6 | 730.2 | – | – | – | 1160 | 0.491 | 0.464 | 0.438
[1], x1 = 0.3083 | 745.9 | 741.4 | 737.1 | – | – | – | 1179 | 0.567 | 0.533 | 0.499
[1], x1 = 0.4066 | 751.5 | 747.2 | 742.9 | – | – | – | 1196 | 0.643 | 0.602 | 0.561
[1], x1 = 0.5029 | 756.4 | 752.2 | 747.9 | – | – | – | 1210 | 0.719 | 0.672 | 0.625
[1], x1 = 0.5905 | 760.2 | 756 | 751.8 | – | – | – | 1221 | 0.801 | 0.746 | 0.688
[1], x1 = 0.6928 | 763.7 | 759.5 | 755.4 | – | – | – | 1232 | 0.899 | 0.833 | 0.767
[1], x1 = 0.7914 | 767.1 | 763 | 758.9 | – | – | – | 1236 | 1.003 | 0.923 | 0.844
[1], x1 = 0.8942 | 770.6 | 766.5 | 762.4 | – | – | – | 1246 | 1.118 | 1.026 | 0.934
[1], x1 = 1 | 773.9 | 769.2 | 765.7 | – | – | – | 1262 | 1.239 | 1.123 | 1.028
[2], x1 = 0.1072 | – | – | – | 1.4052 | 1.4031 | 1.4012 | – | – | – | –
[2], x1 = 0.2039 | – | – | – | 1.4104 | 1.4079 | 1.4054 | – | – | – | –
[2], x1 = 0.3083 | – | – | – | 1.4131 | 1.4116 | 1.4102 | – | – | – | –
[2], x1 = 0.4066 | – | – | – | 1.4164 | 1.4144 | 1.4122 | – | – | – | –
[2], x1 = 0.5029 | – | – | – | 1.4208 | 1.4178 | 1.4148 | – | – | – | –
[2], x1 = 0.5905 | – | – | – | 1.4218 | 1.4194 | 1.4169 | – | – | – | –
[2], x1 = 0.6928 | – | – | – | 1.4238 | 1.4213 | 1.4189 | – | – | – | –
[2], x1 = 0.7914 | – | – | – | 1.4256 | 1.423 | 1.4204 | – | – | – | –
[2], x1 = 0.8942 | – | – | – | 1.4265 | 1.4241 | 1.4217 | – | – | – | –
[2], x1 = 1 | – | – | – | 1.4276 | 1.4255 | 1.4228 | – | – | – | –

CCN(CC)CC [triethylamine] + CCCCN(CCCC)CCCC
x2 = 0
Conditions | mass density, 298.15 K [kg/m3] | mass density, 303.15 K [kg/m3] | mass density, 308.15 K [kg/m3] | refractive index, 298.15 K | refractive index, 303.15 K | refractive index, 308.15 K | speed of sound, 298.15 K [m/s] | viscosity, 298.15 K [mPa·s] | viscosity, 303.15 K [mPa·s] | viscosity, 308.15 K [mPa·s]
[1] | 723.3 | 718.6 | 713.7 | – | – | – | 1123 | 0.367 | 0.349 | 0.332
[2] | – | – | – | 1.3992 | 1.3958 | 1.3929 | – | – | – | –

c1ccncc1 [pyridine] + CCCCN(CCCC)CCCC
x2 = 0
Conditions | mass density, 298.15 K [kg/m3] | mass density, 303.15 K [kg/m3] | mass density, 308.15 K [kg/m3] | refractive index, 298.15 K | refractive index, 303.15 K | refractive index, 308.15 K | speed of sound, 298.15 K [m/s] | viscosity, 298.15 K [mPa·s] | viscosity, 303.15 K [mPa·s] | viscosity, 308.15 K [mPa·s]
[1] | 979 | 973.7 | 968.6 | – | – | – | 1412 | 0.885 | 0.82 | 0.766
[2] | – | – | – | 1.5062 | 1.5025 | 1.5016 | – | – | – | –

CCCCN(CCCC)CCCC [tributylamine] + CCCCCCCCCCCCCC
Conditions | mass density, 298.15 K [kg/m3] | mass density, 303.15 K [kg/m3] | mass density, 308.15 K [kg/m3] | refractive index, 298.15 K | refractive index, 303.15 K | refractive index, 308.15 K | speed of sound, 298.15 K [m/s] | viscosity, 298.15 K [mPa·s] | viscosity, 303.15 K [mPa·s] | viscosity, 308.15 K [mPa·s]
[1], x1 = 0.1081 | 761.9 | 758.1 | 754.4 | – | – | – | 1303 | 1.93 | 1.75 | 1.57
[1], x1 = 0.2058 | 762.9 | 759.2 | 755.5 | – | – | – | 1292 | 1.842 | 1.671 | 1.499
[1], x1 = 0.2802 | 763.8 | 760 | 756.3 | – | – | – | 1287 | 1.774 | 1.612 | 1.45
[1], x1 = 0.4095 | 765.3 | 761.5 | 757.8 | – | – | – | 1283 | 1.668 | 1.518 | 1.368
[1], x1 = 0.5112 | 766.6 | 762.9 | 759.1 | – | – | – | 1279 | 1.585 | 1.448 | 1.31
[1], x1 = 0.6101 | 767.9 | 764.2 | 760.5 | – | – | – | 1275 | 1.511 | 1.386 | 1.261
[1], x1 = 0.7051 | 769.3 | 765.5 | 761.9 | – | – | – | 1272 | 1.441 | 1.329 | 1.216
[1], x1 = 0.7999 | 770.9 | 767 | 763.1 | – | – | – | 1270 | 1.375 | 1.274 | 1.173
[1], x1 = 0.8953 | 772.4 | 768.4 | 764.4 | – | – | – | 1267 | 1.309 | 1.222 | 1.135
[1], x1 = 1 | 773.9 | 769.2 | 765.7 | – | – | – | 1262 | 1.239 | 1.124 | 1.103
[2], x1 = 0.1081 | – | – | – | 1.4283 | 1.4258 | 1.4234 | – | – | – | –
[2], x1 = 0.2058 | – | – | – | 1.4282 | 1.4257 | 1.4234 | – | – | – | –
[2], x1 = 0.2802 | – | – | – | 1.428 | 1.4256 | 1.4232 | – | – | – | –
[2], x1 = 0.4095 | – | – | – | 1.4278 | 1.4254 | 1.4231 | – | – | – | –
[2], x1 = 0.5112 | – | – | – | 1.4278 | 1.4254 | 1.423 | – | – | – | –
[2], x1 = 0.6101 | – | – | – | 1.4278 | 1.4254 | 1.423 | – | – | – | –
[2], x1 = 0.7051 | – | – | – | 1.4279 | 1.4255 | 1.4231 | – | – | – | –
[2], x1 = 0.7999 | – | – | – | 1.4281 | 1.4256 | 1.4231 | – | – | – | –
[2], x1 = 0.8953 | – | – | – | 1.428 | 1.4255 | 1.4231 | – | – | – | –
[2], x1 = 1 | – | – | – | 1.4276 | 1.4255 | 1.4228 | – | – | – | –

CCCCN(CCCC)CCCC [tributylamine] + ClC(Cl)=C(Cl)Cl
Conditions | mass density, [1] [kg/m3] | refractive index, [2] | speed of sound, [1] [m/s] | viscosity, [1] [mPa·s]
298.15 K, x1 = 0.104 | 1433.8 | 1.4872 | 1052 | 0.917
298.15 K, x1 = 0.2059 | 1295.5 | 1.4748 | 1073 | 0.958
298.15 K, x1 = 0.3068 | 1185.4 | 1.4659 | 1094 | 0.996
298.15 K, x1 = 0.4073 | 1095 | 1.4566 | 1116 | 1.033
298.15 K, x1 = 0.4967 | 1026.9 | 1.4506 | 1136 | 1.065
298.15 K, x1 = 0.6069 | 955.4 | 1.4437 | 1162 | 1.104
298.15 K, x1 = 0.699 | 904.2 | 1.4396 | 1184 | 1.136
298.15 K, x1 = 0.8018 | 854.3 | 1.435 | 1209 | 1.172
298.15 K, x1 = 0.9007 | 812 | 1.4316 | 1235 | 1.206
298.15 K, x1 = 1 | 773.9 | 1.4276 | 1262 | 1.239
303.15 K, x1 = 0.104 | 1425.9 | 1.4842 | – | 0.869
303.15 K, x1 = 0.2059 | 1288.1 | 1.4721 | – | 0.902
303.15 K, x1 = 0.3068 | 1181.4 | – | – | 0.93
303.15 K, x1 = 0.4073 | 1089.1 | 1.4539 | – | 0.96
303.15 K, x1 = 0.4967 | 1021.5 | 1.4479 | – | 0.99
303.15 K, x1 = 0.6069 | 949.9 | 1.4415 | – | 1.018
303.15 K, x1 = 0.699 | 899.4 | 1.4367 | – | 1.053
303.15 K, x1 = 0.8018 | 849.4 | 1.4325 | – | 1.081
303.15 K, x1 = 0.9007 | 808 | 1.4289 | – | 1.104
303.15 K, x1 = 1 | 769.2 | 1.4255 | – | 1.124
308.15 K, x1 = 0.104 | 1418.2 | 1.481 | – | 0.818
308.15 K, x1 = 0.2059 | 1281.3 | 1.4692 | – | 0.844
308.15 K, x1 = 0.3068 | 1172.5 | 1.4594 | – | 0.869
308.15 K, x1 = 0.4073 | 1083.2 | 1.451 | – | 0.893
308.15 K, x1 = 0.4967 | 1015.9 | 1.445 | – | 0.914
308.15 K, x1 = 0.6069 | 945.2 | 1.4392 | – | 0.94
308.15 K, x1 = 0.699 | 894.7 | 1.434 | – | 0.961
308.15 K, x1 = 0.8018 | 845.3 | 1.4298 | – | 0.984
308.15 K, x1 = 0.9007 | 803.4 | 1.4263 | – | 1.006
308.15 K, x1 = 1 | 765.7 | 1.4228 | – | 1.028
